Literature values in US7422793B2, “Non-toxic corrosion-protection rinses and seals based on rare earth elements” (University of Dayton, priority 2002, dated 2008).
In brackets after ≈: the same amount, converted by molar mass.

Conditions: fluoride preparative agents; at or near 25° C. and at or near pH 7; cited from earlier work

Row | Compound | Solubility in Water
1 | F[Si-2](F)(F)(F)(F)F.[Li+].[Li+] [Lithium hexafluorosilicate] | 3.8 × 10^0 mole/L
2 | F[Si-2](F)(F)(F)(F)F.[Mg+2] [Magnesium hexafluorosilicate] | 3.9 × 10^0 mole/L
3 | F[Si-2](F)(F)(F)(F)F.[K+].[K+] [Potassium hexafluorosilicate] | 0.0055 mol/L

Same assay, conditions: oxidizer sources; at or near 25° C. and at or near pH 7; cited from earlier work

Row | Compound | Solubility in Water
4 | OO [Hydrogen peroxide] | 60 wt. %

Same assay, conditions: pH 7; cited from earlier work

Row | Compound | Solubility in Water
5 | [F][Sb-]([F])([F])([F])([F])[F].[NH4+] [Ammonium fluoroantimonate] | 4.7 × 10^0 mole/L
6 | F[Si-2](F)(F)(F)(F)F.[NH4+].[NH4+] [Ammonium hexafluorosilicate] | 1.04 × 10^0 mole/L
7 | [F][Sb]([F])([F])([F])[F] [Antimony (V) fluoride] | 1 × 10^0 mole/L
8 | O=[As](=O)O[As](=O)=O [Arsenic pentoxide] | 6.5 × 10^0 mole/L
9 | [O-][Cl+3]([O-])([O-])[O-].[O]=[Bi+] [Bismuthyl perchlorate] | 0.1 mol/L
10 | [Ca+2].[O-][Cl+2]([O-])[O-].[O-][Cl+2]([O-])[O-] [Calcium chlorate] | 7.4 × 10^0 mole/L
11 | F[Si-2](F)(F)(F)(F)F.[Ca+2] [Calcium hexafluorosilicate] | 0.5 mol/L
12 | [Ca+2].[O-][Cl+3]([O-])([O-])[O-].[O-][Cl+3]([O-])([O-])[O-] [Calcium perchlorate] | 7.9 × 10^0 mole/L
13 | [Ce+3].[O-][Cl+3]([O-])([O-])[O-].[O-][Cl+3]([O-])([O-])[O-].[O-][Cl+3]([O-])([O-])[O-] [Cerium (III) perchlorate] | 2.0 × 10^0 mole/L
14 | [Ce+4].[O-][Cl+3]([O-])([O-])[O-].[O-][Cl+3]([O-])([O-])[O-].[O-][Cl+3]([O-])([O-])[O-].[O-][Cl+3]([O-])([O-])[O-] [Cerium (IV) perchlorate] | 1.0 × 10^0 mole/L
15 | [Cs+].[O-][Cl+2]([O-])[O-] [Cesium chlorate] | 0.29 mol/L
16 | [Cs+].[Cs+].[F][Nb-2]([F])([F])([F])([F])([F])[F] [Cesium heptafluoroniobate] | 0.3 mol/L
17 | [Cs+].[Cs+].[F][Ta-2]([F])([F])([F])([F])([F])[F] [Cesium heptafluorotantalate] | 0.3 mol/L
19 | [Cs+].[Cs+].[F][Hf-2]([F])([F])([F])([F])[F] [Cesium hexafluorohafnate] | 0.17 mol/L
20 | [Cs+].[Cs+].[F][Sn-2]([F])([F])([F])([F])[F] [Cesium hexafluorostannate] | 0.079 mol/L
21 | [Cs+].[Cs+].[F][Ti-2]([F])([F])([F])([F])[F] [Cesium hexafluorotitanate] | 0.055 mol/L
22 | [Cs+].[Cs+].[F][Zr-2]([F])([F])([F])([F])[F] [Cesium hexafluorozirconate] | 0.112 mol/L
23 | [Cs+].[Cs+].[O]=[Mo](=[O])([O-])[O-] [Cesium molybdate] | 4.8 × 10^0 mole/L
24 | [Cs+].[O-][Cl+3]([O-])([O-])[O-] [Cesium perchlorate] | 0.086 mol/L
25 | [Cs+].[O-][I+3]([O-])([O-])[O-] [Cesium periodate] | 0.066 mol/L
26 | [Cs+].[Cs+].[O]=[Sn]([O-])[O-] [Cesium stannate] | 1 × 10^0 mole/L
27 | O=[Te](=O)([O-])[O-].[Cs+].[Cs+] [Cesium tellurate] | 0.01 mol/L
28 | [Cs+].[O]=[V](=[O])[O-] [Cesium vanadate] | 0.5 mol/L

Row | Compound | Solubility in Water
29 | CC[N+](CC)(CC)CC.[O-][Cl+3]([O-])([O-])[O-] [Et4N^+ perchlorate] | 0.5 mol/L
30 | [O-][I+2]([O-])O[I+2]([O-])[O-] [Iodine pentoxide] | 5.6 × 10^0 mole/L
31 | [Li+].[O-][Cl+2]([O-])[O-] [Lithium chlorate] | 55 mol/L
32 | [F][Nb-2]([F])([F])([F])([F])([F])[F].[Li+].[Li+] [Lithium heptafluoroniobate] | 0.5 mol/L
33 | [F][Ta-2]([F])([F])([F])([F])([F])[F].[Li+].[Li+] [Lithium heptafluorotantalate] | 0.5 mol/L
34 | [F][Sb-]([F])([F])([F])([F])[F].[Li+] [Lithium hexafluoroantimonate] | 1 × 10^0 mole/L
36 | [F][Hf-2]([F])([F])([F])([F])[F].[Li+].[Li+] [Lithium hexafluorohafnate] | 0.1 mol/L
37 | [F][Sn-2]([F])([F])([F])([F])[F].[Li+].[Li+] [Lithium hexafluorostannate] | 0.01 mol/L
38 | [F][Ti-2]([F])([F])([F])([F])[F].[Li+].[Li+] [Lithium hexafluorotitanate] | 0.05 mol/L
39 | [F-].[F-].[F][Zr]([F])([F])[F].[Li+].[Li+] [Lithium hexafluorozirconate] | 0.08 mol/L
40 | [Li+].[Li+].[O]=[Mo](=[O])([O-])[O-] [Lithium molybdate] | 10 mol/L
41 | [Li+].[Nb+5].[O-2].[O-2].[O-2] [Lithium niobate] | 0.1 mol/L
42 | O=N[O-].[Li+] [Lithium nitrite] | 28 mol/L
43 | [Li+].[O-][Cl+3]([O-])([O-])[O-] [Lithium perchlorate] | 5.6 × 10^0 mole/L
44 | [Li+].[Li+].[O-][O-] [Lithium peroxide] | 1 × 10^0 mole/L
45 | [Li+].[Li+].[O]=[Sn]([O-])[O-] [Lithium stannate] | 5 × 10^0 mole/L
46 | [Li+].[O]=[Ta](=[O])[O-] [Lithium tantalate] | 0.01 mol/L
47 | O=[Te](=O)([O-])[O-].[Li+].[Li+] [Lithium tellurate] | 1 × 10^0 mole/L
48 | F[B-](F)(F)F.[Li+] [Lithium tetrafluoroborate] | 5 × 10^0 mole/L
49 | [Mg+2].[O-][Cl+2]([O-])[O-].[O-][Cl+2]([O-])[O-] [Magnesium chlorate] | 4.3 × 10^0 mole/L
50 | [Mg+2].[O]=[Mo](=[O])([O-])[O-] [Magnesium molybdate] | 0.74 mol/L
51 | O=C([O-])c1ccccc1C(=O)O[O-].[Mg+2] [Magnesium monoperoxyphthalate] | 10 mol/L
52 | O=N[O-].O=N[O-].[Mg+2] [Magnesium nitrite] | 1 × 10^0 mole/L

Row | Compound | Solubility in Water
53 | [Mg+2].[O-][Cl+3]([O-])([O-])[O-].[O-][Cl+3]([O-])([O-])[O-] [Magnesium perchlorate] | 4.4 × 10^0 mole/L
54 | [O]=[Mo](=[O])([OH])[OH] [Molybdic acid] | 0.0074 mol/L
55 | O=C(O)c1ccccc1C(=O)OO [Monoperoxyphthalic acid] | 10 mol/L (≈ 1820 mg/mL)
56 | [O-][Cl+3]([O-])([O-])O [Perchloric acid] | 75 wt. %
57 | [K+].[O]=[Al][O-] [Potassium aluminate] | 1 × 10^0 mole/L
58 | [F][Sb-]([F])([F])([F])([F])[F].[K+] [Potassium fluoroantimonate] | 3.7 × 10^0 mole/L
60 | [F][Nb-2]([F])([F])([F])([F])([F])[F].[K+].[K+] [Potassium heptafluoroniobate] | 0.26 mol/L
61 | [F][Ta-2]([F])([F])([F])([F])([F])[F].[K+].[K+] [Potassium heptafluorotantalate] | 0.3 mol/L
62 | [F-].[F-].[F][Hf]([F])([F])[F].[K+].[K+] [Potassium hexafluorohafnate] | 0.13 mol/L
63 | [F-].[F-].[F-].[F-].[F-].[F-].[K+].[K+].[Sn+4] [Potassium hexafluorostannate] | 0.128 mol/L
64 | [F][Ti-2]([F])([F])([F])([F])[F].[K+].[K+] [Potassium hexafluorotitanate] | 0.06 mol/L
65 | [F][Zr-2]([F])([F])([F])([F])[F].[K+].[K+] [Potassium hexafluorozirconate] | 0.0812 mol/L
66 | [K+].[K+].[O]=[Mo](=[O])([O-])[O-] [Potassium molybdate] | 775 mol/L
67 | O=N[O-].[K+] [Potassium nitrite] | 35 mol/L
68 | [K+].[O-][I+3]([O-])([O-])[O-] [Potassium periodate] | 0.029 mol/L
69 | [K+].[K+].[O]=[Sn]([O-])[O-] [Potassium stannate] | 3.7 × 10^0 mole/L
70 | [K+].[O-2].[O-2].[O-2].[Ta+5] [Potassium tantalate] | 0.005 mol/L
71 | O=[Te](=O)([O-])[O-].[K+].[K+] [Potassium tellurate] | 0.01 mol/L
72 | F[B-](F)(F)F.[K+] [Potassium tetrafluoroborate] | 0.035 mol/L
73 | CCC[N+](CCC)(CCC)CCC.[O-][Cl+3]([O-])([O-])[O-] [Pr4N^+ perchlorate] | 0.1 mol/L
74 | O=[Se](=O)(O)O [Selenic acid] | 60 wt. %
75 | F[Si-2](F)(F)(F)(F)F.[Ag+].[Ag+] [Silver (I) hexafluorosilicate] | 1 × 10^0 mole/L
